Data: patent US8987459B2, “Compounds for the treatment of conditions associated with DGAT1 activity” (Novartis AG, priority 2013, dated 2015)
≈ marks a conversion by molar mass, not a printed value. Structures can show the parent of a compound that is named as a salt. Where two headings read alike, the source gives them in different places. Marks after values point to notes of the source that are not given here.

Tests used:
[1] = Efficacious dose in preclinical species; assay type: in vivo
Experimental: (§1) A standard capsule formulation with 2-((1R,4R)-4-(4-(5-(benzo[d]oxazol-2-ylamino)pyridin-2-yl)phenyl)cyclohexyl)acetic acid meglumine is the recommended CSF strategy to support the projected efficacious dose range in human (11-120 mg) based on following observations: • Low efficacious dose of 2-((1R,4R)-4-(4-(5-(benzo[d]oxazol-2-ylamino)pyridin-2-yl)phenyl)cyclohexyl)acetic acid in preclinical species (0.1-0.3 mg/kg) • High exposure multiples in preclinical species (rat and dog) from a suspension formulation of 2-((1R,4R)-4-(4-(5-(benzo[d]oxazol-2-ylamino)pyridin-2-yl)phenyl)cyclohexyl)acetic acid meglumine • Aqueous kinetic solubility of 2-((1R,4R)-4-(4-(5-(benzo[d]oxazol-2-ylamino)pyridin-2-yl)phenyl)cyclohexyl)acetic acid meglumine can be further improved (20-60 fold) from simple physical blend with polymers and/or surfactants • Improvement in exposure and dose linearity from 2-((1R,4R)-4-(4-(5-(benzo[d]oxazol-2-ylamino)pyridin-2-yl)phenyl)cyclohexyl)acetic acid meglumine over the sodium salt

Efficacious AUC in dog = assay type: in vivo; details: plasma, 0.3 mg/kg, at 0.3 mpk
Experimental: (§2) With a meglumine salt suspension at 100 mg/kg, about 33% decrease in plasma exposure was observed compared to solid dispersion. […] The solid dispersion formulation has several technical challenges which can be avoided by using a 2-((1R,4R)-4-(4-(5-(benzo[d]oxazol-2-ylamino)pyridin-2-yl)phenyl)cyclohexyl)acetic acid meglumine Form A suspension-based formulation.

[2] = Hygroscopicity (relative humidity); assay type: physicochemical; details: for Change in crystallinity (PXRD): listed under hygroscopicity
[3] = Solubility in buffers, biorelevant media and water
[4] = Intrinsic dissolution rate; assay type: physicochemical
[5] = Oral bioavailability in mouse; assay type: in vivo; details: suspension at 30 mg/kg
Experimental: (§3) Direct in vivo comparison of 2-((1R,4R)-4-(4-(5-(benzo[d]oxazol-2-ylamino)pyridin-2-yl)phenyl)cyclohexyl)acetic acid meglumine and 2-((1R,4R)-4-(4-(5-(benzo[d]oxazol-2-ylamino)pyridin-2-yl)phenyl)cyclohexyl)acetic acid sodium salt suspensions were performed in rat and mouse. […] From this preclinical data, it was confirmed that 2-((1R,4R)-4-(4-(5-(benzo[d]oxazol-2-ylamino)pyridin-2-yl)phenyl)cyclohexyl)acetic acid meglumine is a better performing salt.

[6] = Oral exposure and bioavailability in rat; assay type: in vivo; details: for dose linearity: suspension
Experimental: as §3

[7] = Aqueous kinetic solubility, physical blend with polymers and/or surfactants; assay type: physicochemical; details: simple physical blend with polymers and/or surfactants
Experimental: as §1

[8] = Oral exposure and bioavailability in dog; assay type: in vivo
Experimental: as §2

[9] = background statement, no medium given

Structure (SMILES) | Hygroscopicity [%] 0-40% r.h. [2] [%] | Hygroscopicity [%] 0-95% r.h. [2] [%] | Change in crystallinity (PXRD) [2] | pH final of solubility sample ([3]; FaSSIF V2) | Solubility ([3]; FeSSIF V2) [mg/mL] | pH final of solubility sample ([3]; FeSSIF V2) | pH final of solubility sample ([3]; SGF pH 2.0) | Solubility ([3]; Water) [mg/mL] | pH final of solubility sample ([3]; Water) | Solubility ([3]; pH 1 (0.1N HCl)) [mg/mL] | pH final of solubility sample ([3]; pH 1 (0.1N HCl)) | pH final of solubility sample ([3]; pH 4.8 (50 mM Acetate)) | Solubility ([3]; pH 6.5 (50 mM Phosphate)) [mg/mL] | pH final of solubility sample ([3]; pH 6.5 (50 mM Phosphate)) | Intrinsic Dissolution Rate ([4]; pH 4.5 (50 mM Acetate)) | Intrinsic Dissolution Rate ([4]; pH 6.8 (50 mM Phosphate)) | Solubility ([3]; FaSSIF V2) [mg/mL] | Solubility ([3]; SGF pH 2.0) [mg/mL] | Solubility ([3]; pH 4.8 (50 mM Acetate)) [mg/mL] | dose linearity ([6]; 30 and 100 mg/kg) | other results
O=C(O)C[C@H]1CC[C@H](c2ccc(-c3ccc(Nc4nc5ccccc5o4)cn3)cc2)CC1 [Free acid, 2-((1R,4R)-4-(4-(5-(benzo[d]oxazol-2-ylamino)pyridin-2-yl)phenyl)cyclohexyl)acetic acid] | 0.136 | 0.251 | No | (6.34) | 0.06 (≈ 140 µM) | (5.53) | (2.38) | 0.01 (≈ 23.4 µM) | (7.63) | <0.0005 | (1.59) | (4.76) | <0.0005 | (6.87) | 0.013 mg min^−1 cm^−2 | BLQ |  |  |  |  | efficacious dose in preclinical species [1]: 0.1 to 0.3 mg/kg; AUC (Efficacious AUC in dog): 132 nM·h; Solubility ([3]; 50 mM acetate buffer, pH 4.8, aqueous buffer, Solubility [mg/ml], pH 4.8 (50 mM Acetate)): < 0.0005 mg/mL; Solubility ([3]; FaSSIF V2, fassif, Solubility [mg/ml], FaSSIF V2): 0.02 mg/mL (≈ 46.8 µM); Solubility ([3]; SGF, pH 2, simulated gastric fluid, Solubility [mg/ml], SGF pH 2.0): < 0.0005 mg/mL; solubility (in words) [3, 9]: low; intrinsic dissolution (in words) [4, 9]: low
C[N+](C)(C)CCO.O=C(O)C[C@H]1CC[C@H](c2ccc(-c3ccc(Nc4nc5ccccc5o4)cn3)cc2)CC1.O=C([O-])C[C@H]1CC[C@H](c2ccc(-c3ccc(Nc4nc5ccccc5o4)cn3)cc2)CC1 [Hemi-choline, 2-((1R,4R)-4-(4-(5-(benzo[d]oxazol-2-ylamino)pyridin-2-yl)phenyl)cyclohexyl) acetate Hemi-choline salt] | 1.44 | 15.95 | No |  |  |  |  |  |  |  |  |  |  |  | BLQ |  |  |  |  |  | Solubility (pH 1): 0.14 mg/mL; pH final of solubility sample (pH 1): (1.06); Solubility (pH 2): 0.095 mg/mL; pH final of solubility sample (pH 2): (1.05); Solubility (pH 4.8): 0.015 mg/mL; pH final of solubility sample (pH 4.8): (4.76); Solubility (pH 6.5): 0.03 mg/mL; pH final of solubility sample (pH 6.5): (7.15)
O=C(O)C[C@H]1CC[C@H](c2ccc(-c3ccc(Nc4nc5ccccc5o4)cn3)cc2)CC1 [Meglumine Form A, Meglumine salt of 2-((1R,4R)-4-(4-(5-(benzo[d]oxazol-2-ylamino)pyridin-2-yl)phenyl)cyclohexyl)acetic acid] | 0.162 | 0.588 | No | (6.86) | 0.001 | (6.26) | (2.37) | 0.07 | (10.4) | 0.15 | (2.79) | (4.88) | 0.04 | (7.27) | BLQ | BLQ | 0.01 | <0.0005 | <0.0005 |  | 
O=C([O-])C[C@H]1CC[C@H](c2ccc(-c3ccc(Nc4nc5ccccc5o4)cn3)cc2)CC1.[K+] [Potassium, 2-((1R,4R)-4-(4-(5-(benzo[d]oxazol-2-ylamino)pyridin-2-yl)phenyl)cyclohexyl) acetate Potassium salt] | 4.52 | 21.77 | No | (8.32) |  |  | (3.73) | 1.05 | (10.3) | 0.05 | (3.89) | (4.90) | <0.0005 | (7.29) |  |  | 0.095 | 0.003 | <0.0005 |  | 
O=C([O-])C[C@H]1CC[C@H](c2ccc(-c3ccc(Nc4nc5ccccc5o4)cn3)cc2)CC1.[Na+] [Sodium, 2-((1R,4R)-4-(4-(5-(benzo[d]oxazol-2-ylamino)pyridin-2-yl)phenyl)cyclohexyl) acetate sodium salt] | 13.1 | 16.2 | No | (7.47) | 0.003 | (5.66) | (9.13) | 0.023 | (9.3) | <0.0005 | (1.03) | (5.08) | 0.0006 | (8.5) |  |  | 0.007 |  | <0.0005 | not dose linear | bioavailability [5]: 9.6%; Solubility [mg/ml] ([3]; SGF pH 2.0): 0.062* mg/ml; bioavailability ([6]; suspension at 30 mg/kg): 7.6%; bioavailability ([6]; suspension at 100 mg/kg): 4.6%
O=C(O)C[C@H]1CC[C@H](c2ccc(-c3ccc(Nc4nc5ccccc5o4)cn3)cc2)CC1 [meglumine salt, meglumine salt of 2-((1R,4R)-4-(4-(5-(benzo[d]oxazol-2-ylamino)pyridin-2-yl)phenyl)cyclohexyl)acetic acid] |  |  |  |  |  |  |  |  |  |  |  |  |  |  |  |  |  |  |  | dose linear | improvement of aqueous kinetic solubility [7]: 20-60 fold; bioavailability ([5]; in vivo, oral, read-out: bioavailability): 17.3%; dose linearity ([6]; 300 mpk): non-linear; bioavailability ([6]; in vivo, oral, 300 mg/kg, suspension at 300 mpk, read-out: bioavailability): 1.9%; bioavailability ([6]; in vivo, oral, suspension at 30 mg/kg, read-out: bioavailability): 3.1%; bioavailability ([6]; in vivo, oral, suspension at 100 mg/kg, read-out: bioavailability): 3.8%; bioavailability ([8]; plasma, po, 30 mg/kg solution dose (sodium material dissolved in 10% HPβCD in purified water or PBS), read-out: Absolute oral bioavailability): 1.5%; decrease in plasma exposure compared to solid dispersion ([8]; suspension at 100 mg/kg): about 33%; exposure over the efficacious AUC ([8]; suspension at 100 mg/kg): ~150 ×
